Source: patent publication US8367687B2, “Pyrazole derivatives” (Novartis AG, priority 2007, dated 2013)
Read-outs that look alike come from different tables or passages of the source.

Key:
p-pRb/S780 = p-pRb/S780 ELISA Cellular Assay (CDK4 ELISA assay); format: cell-based; conditions: cells treated for 24 hrs
Method: Biological Activity p-pRb/S780 ELISA Cellular Assay
Maxisorp plates (Nunc 442404) are coated with 50 ul of 1 ug/mL total phospholated Retinoblast Protein (pRb) antibody (4H1 Cell Signaling 9309L) diluted in DPBS (Phosphate Buffered Saline) overnight at 4° C. The next day plates are blocked with Superblock in TBST (Pierce 37535) for one hour to overnight—changing block once during that time. Cells are plated at 50-60% confluency in a 96 well plate (Corning 3585) in 100 uL complete media (media containing fetal bovine serum (Gibco 1600-044), 2 mM L-Glutamine (Gibco 25030), and 1% Penicillin/Streptomycin (Gibco 15140-122) and grown overnight in a humidified chamber at 37° C. and 5% CO2. Compounds (in DMSO) are diluted in media to create a 7 point dilution series of compound with concentrations ranging from 110 uM to 0.027 uM. 10 ul of the diluted compounds are added to the cells, with final concentrations on cells ranging from 10 uM to 0.002 uM. Cells are treated for 24 hrs in a humidified chamber at 37° C. and 5% CO2. Following compound incubation, cells are lysed with 40 uL/well lysis buffer (50 mM Tris-HCL pH 7.5 (Invitrogen 15567-027), 120 mM NaCl (Promega V4221), 1 mM EDTA (Gibco 15575-038), 6 mM EGTA (Fisher 02783-100), 1% Nonidet P40 (Fluka R02771). Plates are placed on Titerplate shaker (Labline model 4625) for 5 minutes at 4° C. to lyse cells. After lysis, 10 ul of cell lysate and 50 ul 1×PBS/10% Superblock (Gibco 10010 and Pierce 37535) is added to each well of the precoated and blocked Maxisorp plate and allowed to bind at room temperature for 2 hours on Oribtron Rotator II (Boekel Industries Model 260250). Plates are then washed 3× with 1×TBST (Teknova T9201) using Biotek platewasher equipped with a Biostack. The final wash is not aspirated. The final wash is removed by flicking off and tapping plate on paper towels. ppRbS780 antibody (Cell Signaling 9307L) is diluted 1:1000 in 1×PBS/10% Superblock (Gibco 10010 and Pierce 37535) and 50 ul is added to each well. Plates are then incubated 1 hour on Oribtron Rotator II (Boekel Industries Model 260250). Plates are then washed as previously described. Goat anti-rabbit HRP (Promega W401B) is diluted 1:2500 1×PBS/10% Superblock (Gibco 10010 and Pierce 37535) and 50 ul is added to each well. Plates are then incubated 30 minutes on Oribtron Rotator II. Plates are then washed as previously described. 50 uL Ultra TMB ELISA (Pierce 34028) is then added to each well. Plates are incubated 5-20 minutes until blue color develops. 50 ul 2M Sulfuric acid (Mallinckrodt 2468-46) is then added to each well to stop the reaction. Absorbance at 450 nm for each plate is read on Spectramax Plus (Molecular Devices).

CDK2 cyA = CDK2 cyA (Homo sapiens, UniProt P24941); assay: CDK2 cyA IMAP; format: biochemical
CDK4 = CDK4 (Homo sapiens, UniProt P11802); assay: CDK4 HTRF; format: biochemical
hCDK1/B = hCDK1/B (Homo sapiens, UniProt P06493); assay: hCDK1/B; format: biochemical
[1] = Table 1, read-out: CDK4 ELISA assay IC50
[2] = Table 1, read-out: CDK2 cyA IMAP
[3] = Table 2, read-out: p_pRb Cap EL/ IC50_ppRbinh
[4] = Table 2, read-out: CDK2cyA IMAP/ IC50
[5] = Table 2, read-out: CDK4 HTRF/ IC50

hCDK1/B, sequence (P06493 whole entry): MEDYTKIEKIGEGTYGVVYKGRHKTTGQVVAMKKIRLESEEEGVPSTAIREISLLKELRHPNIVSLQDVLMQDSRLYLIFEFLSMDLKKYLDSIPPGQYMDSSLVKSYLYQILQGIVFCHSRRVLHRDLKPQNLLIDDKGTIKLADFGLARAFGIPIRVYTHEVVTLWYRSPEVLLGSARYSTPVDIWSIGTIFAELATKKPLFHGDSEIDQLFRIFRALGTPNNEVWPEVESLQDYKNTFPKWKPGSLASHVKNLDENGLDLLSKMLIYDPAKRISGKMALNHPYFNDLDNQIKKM
hCDK1/B, sequence (P14635 whole entry partner): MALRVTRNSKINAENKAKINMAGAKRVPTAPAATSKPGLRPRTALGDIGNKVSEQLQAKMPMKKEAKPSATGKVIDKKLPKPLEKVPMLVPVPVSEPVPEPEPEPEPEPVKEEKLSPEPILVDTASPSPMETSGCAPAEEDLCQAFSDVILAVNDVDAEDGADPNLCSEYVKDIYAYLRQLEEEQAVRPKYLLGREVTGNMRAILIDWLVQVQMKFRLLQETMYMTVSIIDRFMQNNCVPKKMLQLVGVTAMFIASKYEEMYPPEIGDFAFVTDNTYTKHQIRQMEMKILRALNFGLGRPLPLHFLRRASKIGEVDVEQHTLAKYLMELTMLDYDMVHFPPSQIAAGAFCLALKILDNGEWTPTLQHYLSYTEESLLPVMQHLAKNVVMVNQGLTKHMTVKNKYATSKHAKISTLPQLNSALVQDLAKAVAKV
CDK4, sequence (P11802 whole entry): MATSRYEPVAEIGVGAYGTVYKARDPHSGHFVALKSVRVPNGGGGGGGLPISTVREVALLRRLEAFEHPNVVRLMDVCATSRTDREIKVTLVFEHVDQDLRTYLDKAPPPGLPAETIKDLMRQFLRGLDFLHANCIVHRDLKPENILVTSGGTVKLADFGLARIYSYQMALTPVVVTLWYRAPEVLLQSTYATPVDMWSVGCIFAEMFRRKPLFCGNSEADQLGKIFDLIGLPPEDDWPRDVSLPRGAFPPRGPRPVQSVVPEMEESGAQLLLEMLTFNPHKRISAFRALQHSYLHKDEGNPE
CDK4, sequence (P24385 whole entry partner): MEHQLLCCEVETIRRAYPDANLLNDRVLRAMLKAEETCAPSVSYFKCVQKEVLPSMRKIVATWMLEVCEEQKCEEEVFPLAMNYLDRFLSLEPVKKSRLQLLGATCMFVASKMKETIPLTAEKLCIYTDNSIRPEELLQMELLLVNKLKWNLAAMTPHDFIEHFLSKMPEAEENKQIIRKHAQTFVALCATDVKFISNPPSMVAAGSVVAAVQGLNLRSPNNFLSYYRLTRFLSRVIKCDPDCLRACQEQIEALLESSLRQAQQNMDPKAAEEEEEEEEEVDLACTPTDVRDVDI

IC50 (p-pRb/S780; [1])	IC50 (CDK2 cyA; [2])	IC50 (CDK4; Table 1, read-out: CDK4 HTRF)	IC50 (hCDK1/B; Table 1)	IC50 (p-pRb/S780; [3])	IC50 (CDK2 cyA; [4])	IC50 (CDK4; [5])	IC50 (hCDK1/B; Table 2)	SMILES
< 0.5 µM	< 5 µM	< 5 µM	< 5 µM	–	–	–	–	CC(C)c1[nH]ncc1-c1ccnc(NCc2ccncc2)c1 [Example 22]
–	–	–	–	< 15 µM	< 10 µM	< 1 µM	< 10 µM	Cc1n[nH]cc1-c1ccnc(NCCc2ccccc2)n1 [Example 91]
–	–	–	–	< 15 µM	< 15 µM	< 5 µM	< 10 µM	Cc1cc(C)n(CCNc2nccc(-c3c[nH]nc3C(C)C)n2)n1 [Example 149]
–	–	–	–	< 1 µM	< 0.5 µM	< 0.05 µM	< 5 µM	CC(C)c1n[nH]cc1-c1ccnc(N[C@@H]2CCCc3ccccc32)n1 [Example 177]
–	–	–	–	< 15 µM	< 5 µM	< 1 µM	< 10 µM	CCC(C)Nc1nccc(-c2c[nH]nc2C)n1 (stereo not drawn) [Example 110]
–	–	–	–	< 15 µM	≥ 15 µM	< 10 µM	≥ 15 µM	Cc1n[nH]cc1-c1ccnc(NCCN(C)C)n1 [Example 94]
–	–	–	–	< 15 µM	≥ 15 µM	< 10 µM	≥ 15 µM	Cc1n[nH]cc1-c1ccnc(NCCN2CCCC2)n1 [Example 109]
–	–	–	–	< 15 µM	≥ 15 µM	< 15 µM	≥ 15 µM	Cc1n[nH]cc1-c1ccnc(NCC(=O)OC(C)(C)C)n1 [Example 129]
–	–	–	–	< 5 µM	< 1 µM	< 0.05 µM	< 0.5 µM	CC(C)c1n[nH]cc1-c1ccnc(NC2CCN(C)CC2)n1 [Example 139]
–	–	–	–	< 15 µM	< 15 µM	< 5 µM	< 10 µM	Cc1n[nH]cc1-c1ccnc(NCC2CCCCCC2)n1 [Example 105]
–	–	–	–	< 15 µM	≥ 15 µM	< 15 µM	≥ 15 µM	COc1cc(CNc2nccc(-c3c[nH]nc3C)n2)cc(OC)c1 [Example 133]
–	–	–	–	< 1 µM	< 0.5 µM	< 0.1 µM	< 0.5 µM	CC(C)c1n[nH]cc1-c1ccnc(NC2CCc3cc(F)ccc32)n1 (stereo not drawn) [Example 189]
< 15 µM	≥ 15 µM	< 5 µM	≥ 15 µM	–	–	–	–	CC(C)c1[nH]ncc1-c1ccnc(NCCC2CCCN2C)c1 (stereo not drawn) [Example 42]
–	–	–	–	< 15 µM	≥ 15 µM	< 5 µM	≥ 15 µM	Cc1cc(C)cc(CNc2nccc(-c3c[nH]nc3C)n2)c1 [Example 134]
< 15 µM	≥ 15 µM	< 5 µM	≥ 15 µM	–	–	–	–	c1cc(-c2cn[nH]c2C2CCCC2)cc(NCCCN2CCOCC2)n1 [Example 65]
< 15 µM	≥ 15 µM	< 5 µM	≥ 15 µM	–	–	–	–	c1cc(-c2cn[nH]c2C2CCCC2)cc(NCCN2CCCCC2)n1 [Example 61]
–	–	–	–	< 15 µM	< 15 µM	< 5 µM	< 15 µM	Cc1n[nH]cc1-c1ccnc(NCCOc2ccccc2)n1 [Example 98]

IC50 (p-pRb/S780; [1])	IC50 (CDK2 cyA; [2])	IC50 (CDK4; Table 1, read-out: CDK4 HTRF)	IC50 (hCDK1/B; Table 1)	IC50 (p-pRb/S780; [3])	IC50 (CDK2 cyA; [4])	IC50 (CDK4; [5])	IC50 (hCDK1/B; Table 2)	SMILES
–	–	–	–	< 15 µM	< 15 µM	< 5 µM	< 15 µM	COc1ccc(CNc2nccc(-c3c[nH]nc3C)n2)cc1 [Example 100]
–	–	–	–	< 5 µM	< 0.5 µM	< 0.05 µM	< 0.5 µM	CC(C)c1n[nH]cc1-c1ccnc(NC2Cc3ccccc3C2)n1 [Example 170]
< 15 µM	< 10 µM	< 5 µM	≥ 15 µM	–	–	–	–	CC(C)c1[nH]ncc1-c1ccnc(NCCN2CCOCC2)c1 [Example 32]
–	–	–	–	< 15 µM	< 15 µM	< 5 µM	< 10 µM	Cc1n[nH]cc1-c1ccnc(NCc2ccccc2)n1 [Example 93]
–	–	–	–	< 5 µM	< 1 µM	< 0.05 µM	< 5 µM	CC(C)c1n[nH]cc1-c1ccnc(NC2CCCc3ccccc32)n1 (stereo not drawn) [Example 169]
< 15 µM	≥ 15 µM	< 10 µM	≥ 15 µM	–	–	–	–	CC(C)c1[nH]ncc1-c1ccnc(NCCCN2CCOCC2)c1 [Example 36]
–	–	–	–	< 1 µM	< 0.5 µM	< 0.05 µM	< 0.5 µM	CC(C)c1n[nH]cc1-c1ccnc(N[C@@H]2CCc3ccccc32)n1 [Example 176, (R)-Indan-1-yl-[4-(3-isopropyl-1H-pyrazol-4-yl)-pyrimidin-2-yl]-amine]
–	–	–	–	< 15 µM	≥ 15 µM	< 15 µM	≥ 15 µM	Cc1n[nH]cc1-c1ccnc(NCCCN2CCCC2)n1 [Example 128]
–	–	–	–	< 5 µM	< 1 µM	< 0.1 µM	< 0.5 µM	CC(C)c1n[nH]cc1-c1ccnc(NC2CCCCC2C)n1 (stereo not drawn) [Example 160]
–	–	–	–	< 15 µM	≥ 15 µM	< 15 µM	≥ 15 µM	COc1cccc(OC)c1CNc1nccc(-c2c[nH]nc2C(C)C)n1 [Example 156]
–	–	–	–	< 15 µM	< 10 µM	< 5 µM	< 10 µM	CCCCNc1nccc(-c2c[nH]nc2C)n1 [Example 119]
–	–	–	–	< 15 µM	< 15 µM	< 5 µM	< 15 µM	Cc1n[nH]cc1-c1ccnc(NCCC#N)n1 [Example 96]
< 0.1 µM	< 5 µM	< 5 µM	< 5 µM	–	–	–	–	CC(C)c1[nH]ncc1-c1ccnc(NCc2cccc(C(F)(F)F)c2)c1 [Example 25]
< 5 µM	< 5 µM	< 10 µM	< 5 µM	–	–	–	–	Cc1ccc(CNc2cc(-c3cn[nH]c3C3CCCC3)ccn2)cc1 [Example 64]
–	–	–	–	< 5 µM	≥ 15 µM	< 0.1 µM	≥ 15 µM	CC(C)c1n[nH]cc1-c1ccnc(NC2CCC(C)(C)c3ccccc32)n1 (stereo not drawn) [Example 188]
–	–	–	–	< 15 µM	≥ 15 µM	< 5 µM	≥ 15 µM	CCN(CC)CCNc1nccc(-c2c[nH]nc2C(C)C)n1 [Example 144]
